From patent US20140288044A1, “COMPOSITIONS AND THERAPEUTIC USES OF IKK-RELATED KINASE EPSILON AND TANKBINDING KINASE 1 INHIBITORS” (Alzheimer's Institute of America, Inc., priority 2011, published 2014)
Like-named read-outs stand apart in the source and are kept apart here.

What was measured:
[1] = test system: IKKε-mediated phosphorylation of IRF3; assay: ELISA for in-situ phosphorylation of IRF3 (phospho-Ser396) in HEK293T cells cotransfected with IRF3 and IKKε; format: cell-based; settings: Homo sapiens, HEK-293T, 20 h, HEK293T cells, 20 hours, read-out: IC50, in-situ IKKε-mediated phosphorylation of IRF3
Summary of the method: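 HEK293T cells cotransfected with IRF3 and IKKε were treated with compound for 20 h, and lysates were assayed by ELISA for phospho-Ser396 IRF3, normalized to DMSO. Viability was checked in parallel by CellTiter-Glo. For TBK1, cells cotransfected with IRF7 and TBK1 were treated overnight and probed by Western blot for phospho-Ser477/Ser479 IRF7.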

IKKε = molecular target: T1, IKKε (Homo sapiens, UniProt Q14164); assay: In-vitro IKKε kinase assay (radiolabelled ATP, filterplate); format: biochemical
T1 construct: His-tag (in-house Sf9 preparation) or GST-tag (purchased Invitrogen preparation); these are alternatives, not both on one protein; host or cells: Sf9 cells
T1 sequence (Q14164 1-716): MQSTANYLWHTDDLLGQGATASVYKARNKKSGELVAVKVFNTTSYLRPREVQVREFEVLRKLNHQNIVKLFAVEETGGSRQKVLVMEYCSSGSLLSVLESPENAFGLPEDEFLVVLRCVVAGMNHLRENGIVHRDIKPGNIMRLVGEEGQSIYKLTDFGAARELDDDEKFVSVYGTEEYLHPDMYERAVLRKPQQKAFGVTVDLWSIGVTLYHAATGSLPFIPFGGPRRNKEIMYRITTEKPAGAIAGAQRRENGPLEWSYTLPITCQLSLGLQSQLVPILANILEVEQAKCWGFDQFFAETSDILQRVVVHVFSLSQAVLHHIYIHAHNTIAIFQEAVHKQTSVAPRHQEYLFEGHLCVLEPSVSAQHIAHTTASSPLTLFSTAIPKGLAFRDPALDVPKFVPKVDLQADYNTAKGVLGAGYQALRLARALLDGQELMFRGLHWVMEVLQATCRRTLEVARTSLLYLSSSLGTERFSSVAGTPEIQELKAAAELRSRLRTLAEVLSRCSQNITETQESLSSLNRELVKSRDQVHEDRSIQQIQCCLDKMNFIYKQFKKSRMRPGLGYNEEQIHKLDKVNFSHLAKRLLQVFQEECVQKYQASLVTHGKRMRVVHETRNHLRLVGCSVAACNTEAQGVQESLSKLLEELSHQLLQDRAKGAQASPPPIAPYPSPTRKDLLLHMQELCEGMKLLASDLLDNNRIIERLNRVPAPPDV
Summary of the method: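 His-tagged IKKε from Sf9 cells or GST-tagged IKKε, with myelin basic protein, casein or dephosphorylated casein as substrate and 32 μM ATP (2× Km) plus [γ^33]ATP. "Normal" assay used 0.1 μg/ml enzyme; "sensitized" used 0.015 μg/ml with dephosphorylated casein only. Stopped after 30–45 min with phosphoric acid; P-81 filter counts normalized to DMSO after background subtraction.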

[2] = range given from about 1 μM to about 250 nM
[3] = in-vitro IKKε kinase inhibition assays, given as 0.005 μM (5 nM), read-out: IKKε kinase inhibitory activity (IC50 value)
[4] = "sensitized" assay, read-out: IC50, inhibition of the kinase activity of IKKε

IC50 [1, 2]	IC50 (IKKε; [3])	IC50 [1]	SMILES	IC50 (IKKε; [4])
250 to 1000 nM	< 5 nM		C[C@@H](O)C(=O)N(C)Cc1ccc(Nc2nccc(-c3ccc(OC4CCOCC4)c(C#N)c3)n2)cn1 [Example Compound 57, (2R)—N-{[5-({4-[3-Cyano-4-(tetrahydro-2H-pyran-4-yloxy)phenyl]pyrimidin-2-yl}amino)pyridin-2-yl]methyl}-2-hydroxy-N-methylpropanamide]	
		100 to 250 nM	CC(c1ncc(Nc2nccc(-c3ccc(OC4CCOCC4)c(C#N)c3)n2)cc1F)N1CC(N(C)C)C1 (stereo not drawn) [Example Compound 250, 5-{2-[(6-{1-[3-(Dimethylamino)azetidin-1-yl]ethyl}-5-fluoropyridin-3-yl)amino]pyrimidin-4-yl}-2-(tetrahydro-2H-pyran-4-yloxy)benzonitrile]	< 5 nM
	< 5 nM	100 to 250 nM	CC(C)COc1ccc(-c2ccnc(Nc3ccc(N(C)CCO)nc3)n2)cc1C#N [Example Compound 109, 5-[2-({6-[(2-Hydroxyethyl)(methyl)amino]pyridin-3-yl}amino)pyrimidin-4-yl]-2-(2-methylpropoxy)benzonitrile]	< 5 nM
250 to 1000 nM	< 5 nM		N#Cc1cc(-c2ccnc(Nc3ccc(C(=O)N4CC(O)C4)nc3)n2)ccc1OC1CCOCC1 [Example Compound 32, 5-[2-({6-[(3-Hydroxyazetidin-1-yl)carbonyl]pyridin-3-yl}amino)pyrimidin-4-yl]-2-(tetrahydro-2H-pyran-4-yloxy)benzonitrile]	< 5 nM
		100 to 250 nM	N#Cc1cc(-c2ccnc(Nc3ccc(C(=O)N4CCCC4)nc3)n2)ccc1OC1CCN(C(=O)CO)CC1 [Example Compound 232, 2-{[1-(Hydroxyacetyl)piperidin-4-yl]oxy}-5-(2-{[6-(pyrrolidin-1-ylcarbonyl)pyridin-3-yl]amino}pyrimidin-4-yl)benzonitrile]	< 5 nM
	< 5 nM	< 100 nM	N#Cc1cc(-c2ccnc(Nc3ccc(C4CC4)nc3)n2)ccc1OC1CCOCC1 [Example Compound 4, 5-{2-[(6-Cyclopropylpyridin-3-yl)amino]pyrimidin-4-yl}-2-(tetrahydro-2H-pyran-4-yloxy)benzonitrile]	< 5 nM
	< 5 nM	100 to 250 nM	N#Cc1cc(-c2ccnc(Nc3ccnc(N4CCC[C@@H]4CO)c3)n2)ccc1OC1CCOCC1 [Example Compound 37, 5-[2-({2-[(2R)-2-(Hydroxymethyl)pyrrolidin-1-yl]pyridin-4-yl}amino)pyrimidin-4-yl]-2-(tetrahydro-2H-pyran-4-yloxy)benzonitrile]	
		< 100 nM	CC(c1ccc(Nc2nccc(-c3ccc(OC4CCOCC4)c(C#N)c3)n2)cn1)N1CC(N(C)C)C1 (stereo not drawn) [Example Compound 244, 5-{2-[(6-{1-[3-(Dimethylamino)azetidin-1-yl]ethyl}pyridin-3-yl)amino]pyrimidin-4-yl}-2-(tetrahydro-2H-pyran-4-yloxy)benzonitrile]	< 5 nM
		100 to 250 nM	N#Cc1cc(-c2ccnc(Nc3ccc(CNC(=O)N4CCOCC4)nc3)n2)ccc1OC1CCOCC1 [Example Compound 229, N-{[5-({4-[3-Cyano-4-(tetrahydro-2H-pyran-4-yloxy)phenyl]pyrimidin-2-yl}amino)pyridin-2-yl]methyl}morpholine-4-carboxamide]	< 5 nM
	< 5 nM	100 to 250 nM	CC(=O)N(C)Cc1ccc(Nc2nccc(-c3ccc(OC4CCOCC4)c(C#N)c3)n2)cn1 [Example Compound 53, N-{[5-({4-[3-Cyano-4-(tetrahydro-2H-pyran-4-yloxy)phenyl]pyrimidin-2-yl}amino)pyridin-2-yl]methyl}-N-methylacetamide]	
	< 5 nM	100 to 250 nM	CN(Cc1ccc(Nc2nccc(-c3ccc(OC4CCOCC4)c(C#N)c3)n2)cn1)C(=O)CO [Example Compound 58, N-{[5-({4-[3-Cyano-4-(tetrahydro-2H-pyran-4-yloxy)phenyl]pyrimidin-2-yl}amino)pyridin-2-yl]methyl}-2-hydroxy-N-methylacetamide]	
		100 to 250 nM	COCCNCc1cncc(Nc2nccc(-c3ccc(OC4CCOCC4)c(C#N)c3)n2)c1 [Example Compound 184, 5-{2-[(5-{[(2-Methoxyethyl)amino]methyl}pyridin-3-yl)amino]pyrimidin-4-yl}-2-(tetrahydro-2H-pyran-4-yloxy)benzonitrile]	< 5 nM
		< 100 nM	CN(Cc1ccc(Nc2nccc(-c3ccc(OC4CCOCC4)c(C#N)c3)n2)cn1)C(=O)C(C)(C)O [Example Compound 205, N-{[5-({4-[3-Cyano-4-(tetrahydro-2H-pyran-4-yloxy)phenyl]pyrimidin-2-yl}amino)pyridin-2-yl]methyl}-2-hydroxy-N,2-dimethylpropanamide]	< 5 nM
250 to 1000 nM	< 5 nM		CNCc1ccc(Nc2nccc(-c3ccc(OC4CCOCC4)c(C#N)c3)n2)cn1 [Example Compound 52, 5-[2-({6-[(Methylamino)methyl]pyridin-3-yl}amino)pyrimidin-4-yl]-2-(tetrahydro-2H-pyran-4-yloxy)benzonitrile]	< 5 nM
		1000 to 5000 nM	N#Cc1cc(-c2ccnc(Nc3cncc(C(=O)NCCO)c3)n2)ccc1OC1CCOCC1 [Example Compound 175, 5-({4-[3-Cyano-4-(tetrahydro-2H-pyran-4-yloxy)phenyl]pyrimidin-2-yl}amino)-N-(2-hydroxyethyl)pyridine-3-carboxamide]	< 5 nM
	< 5 nM	100 to 250 nM	N#Cc1cc(-c2ccnc(Nc3ccc(N4CCCC4)nc3)n2)ccc1OC1CCOCC1 [Example Compound 5, 5-(2-{[6-(Pyrrolidin-1-yl)pyridin-3-yl]amino}pyrimidin-4-yl)-2-(tetrahydro-2H-pyran-4-yloxy)benzonitrile]	< 5 nM
		< 100 nM	CC(c1ccc(Nc2nccc(-c3ccc(OC4CCOCC4)c(C#N)c3)n2)cn1)N1CCOCC1 (stereo not drawn) [Example Compound 252, 5-[2-({6-[1-(Morpholin-4-yl)ethyl]pyridin-3-yl}amino)pyrimidin-4-yl]-2-(tetrahydro-2H-pyran-4-yloxy)benzonitrile]	< 5 nM
250 to 1000 nM	< 5 nM		N#Cc1cc(-c2ccnc(Nc3ccnc(CN4CC(O)C4)c3)n2)ccc1OC1CCOCC1 [Example Compound 70, 5-[2-({2-[(3-Hydroxyazetidin-1-yl)methyl]pyridin-4-yl}amino)pyrimidin-4-yl]-2-(tetrahydro-2H-pyran-4-yloxy)benzonitrile]	
	< 5 nM	100 to 250 nM	CN(Cc1ccc(Nc2nccc(-c3ccc(OC4CCOCC4)c(C#N)c3)n2)cn1)C(=O)C1(N)CC1 [Example Compound 60, 1-Amino-N-{[5-({4-[3-cyano-4-(tetrahydro-2H-pyran-4-yloxy)phenyl]pyrimidin-2-yl}amino)pyridin-2-yl]methyl}-N-methylcyclopropanecarboxamide]	
	< 5 nM	< 100 nM	CN(C)c1ccc(Nc2nccc(-c3ccc(NC(=O)C4CC4)c(C#N)c3)n2)cn1 [Example Compound 138, N-[2-Cyano-4-(2-{[6-(dimethylamino)pyridin-3-yl]amino}pyrimidin-4-yl)phenyl]cyclopropanecarboxamide]	< 5 nM
	< 5 nM	1000 to 5000 nM	CNC(=O)c1cncc(Nc2nccc(-c3ccc(OC4CCOCC4)c(C#N)c3)n2)c1 [Example Compound 12, 5-({4-[3-Cyano-4-(tetrahydro-2H-pyran-4-yloxy)phenyl]pyrimidin-2-yl}amino)-N-methylpyridine-3-carboxamide]	< 5 nM
		100 to 250 nM	CC(O)c1ccc(Nc2nccc(-c3ccc(OC4CCOCC4)c(C#N)c3)n2)cn1 (stereo not drawn) [Example Compound 231, 5-(2-{[6-(1-Hydroxyethyl)pyridin-3-yl]amino}pyrimidin-4-yl)-2-(tetrahydro-2H-pyran-4-yloxy)benzonitrile]	< 5 nM
